Common to all, as to format: physicochemical
A short description of data set [1]: Solubility of the allosteric effector compound in water and stabilizing agent solutions. How it is done: (§1) The pKa for 2-[4-[2-[(3,5-dimethylphenyl)amino]-2-oxoethyl]phenoxy]-2-methyl-propionic acid is about 3.5. Accordingly, there is an appreciable solubility at a pH of 7. The solubility of the sodium salt of 2-[4-[2-[(3,5-dimethylphenyl)amino]-2-oxoethyl]phenoxy]-2-methyl-propionic acid at a pH of 7 is about 50 mg/ml. […] It is thought that the addition of a stabilizing agent maintains the integrity of this small aggregate-like species.
This unforeseen problem of formation of particulate matter at concentrations beneath the solubility of the compound is solved by the addition of a stabilizing agent. The effect of the stabilizing agent is to prevent or minimize the formation of sub-visual particulates. In some embodiments, the stabilizing agent may also act as a buffer to stabilize the pH of the solution. In other embodiments, the stabilizing agent and buffering agent are different. The stabilizing agent acts to prevent the formation of significant amounts of sub-visual particulate matter, particularly after heat sterilization. The result is a formulation that can be terminally sterilized, have a long shelf life, and meet the USP 25 <788> sub-visual particulate matter requirements. Without being bound by theory, it is believed that stabilization of pH is one factor contributing to stabilization of the formulation; however, the pH of the solution alone is insufficient to stabilize the solutions. […] If necessary, the pH of the solution can be adjusted to a pH of at least about 6, preferably from about 6 to about 11. More preferably, the pH is adjusted to about 6.5 to about 9.0. More preferably, the pH is adjusted to about 7.5 to 8.5. The pH may be adjusted by the addition of any appropriate acid or base. Suitable acids may be amino acids, carboxylic acids, phosphoric acid, hydrochloric acid or other acids suitable for pharmaceutical preparations. Suitable bases include, sodium hydroxide or other bases suitable for pharmaceutical preparations.
Accordingly, stabilizing agents having an amine group are contemplated within the scope of this invention.

The nature of the next data set: pKa. How it is done: as §1
Data set [2] can be described thus: Chemical and physical (precipitate) stability of the formulation. How it is done:
as §1
The allosteric modifying compound is chemically and physically stable between a pH of about 6 and about 11. Preferably, the composition has a pH of at least about 6. More preferably, the composition has a pH ranging from about 6 to about 11. Most preferably, the composition has a pH ranging from about 6.5 to about 9.0.
The composition of the present invention is chemically stable and stable with respect to the formation of particulate matter for at least about thirty days. This makes the composition particularly useful at the administration site because no additional steps, such as filtering the composition, are necessary prior to administration to a patient. Time is time after sterilization.

The mark [3] stands for this setting: 20 mg/mL (58.7 mmol/L), pH 7.5, no stabilizing compound, heat sterilized.

As a reminder, the solubility is the dissolved amount per volume that the medium holds. In general, pKa refers to the negative logarithm of the acid dissociation constant. Read a high pKa as a weaker acid or stronger base.

In brackets after ≈: the same amount, converted by molar mass. Where two headings read alike, the source gives them in different places.

On to `Cc1cc(C)cc(NC(=O)Cc2ccc(OC(C)(C)C(=O)[O-])cc2)c1.[Na+]` [sodium salt of 2-[4-[2-[(3,5-dimethylphenyl)amino]-2-oxoethyl]phenoxy]-2-methyl-propionic acid], for which the solubility in data set [1] (pH 7, aqueous buffer, pH of 7, read-out: solubility) is about 50 mg/mL.
Take `Cc1cc(C)cc(NC(=O)Cc2ccc(OC(C)(C)C(=O)O)cc2)c1` [2-[4-[2-[(3,5-dimethylphenyl)amino]-2-oxoethyl]phenoxy]-2-methyl-propionic acid]: the solubility in data set [1] (aqueous buffer, 0.5 M arginine solution, 23° C., pH 7.2-7.5, read-out: solubility) was 155 mg/mL (≈ 454 mM); in data set [1] (aqueous buffer, 0.5 M tris solution, 23° C., pH 7-8, read-out: solubility), 99.9 mg/mL (≈ 293 mM); in data set [1] (aqueous buffer, 100-200 mM meglumine solutions, 23° C., pH 7.5, read-out: increase in solubility), about 12 mg/mL (≈ 35.1 mM); in data set [1] (in water, 23° C., read-out: solubility), about 44 mg/mL (≈ 129 mM). The compound also registered a pKa in “pKa” of about 3.5. For the same compound, the chemical degradation result in data set [2] (setting [3]) is given as “stable to chemical degradation”. For the same compound, the “precipitate formation after heat sterilization” value in data set [2] (setting [3]) is on record as “developed a precipitate of the allosteric modifier within one week after sterilization”. Besides, the “precipitation / subvisual particulate formation in solution” value in data set [2] (20 mg/ml, pH about 7, 25° C.) is reported as “begins to precipitate out of solution, forming subvisual particulate”.
